Experiment: Sealed storage of micronised glycopyrrolate batches, physical changes and repeated particle sizing
Type: physicochemical
Conditions: sealed storage for several weeks
Source text: Batches of micronised glycopyrrolate were obtained and, following sealed storage for several weeks, the physical changes of the material from fine cohesive powders to solid agglomerates were observed.
The following section summarises the tests conducted on reported batches of glycopyrrolate received following micronisation: […]

## C[N+]1(C)CCC(OC(=O)C(O)(c2ccccc2)C2CCCC2)C1 (centres unmarked) [Batch B, glycopyrrolate]
  Physical state of powder on storage: large hard lumps of material were found

## C[N+]1(C)CCC(OC(=O)C(O)(c2ccccc2)C2CCCC2)C1 (centres unmarked) [Remicronised Batch C, glycopyrrolate]
  Physical state of powder on storage: only soft lumps of material were found in bulk powder

## C[N+]1(C)CCC(OC(=O)C(O)(c2ccccc2)C2CCCC2)C1 (centres unmarked) [Batch A, glycopyrrolate]
  Physical state of powder on storage: soft lumps of material were found in bulk powder

## C[N+]1(C)CCC(OC(=O)C(O)(c2ccccc2)C2CCCC2)C1 (centres unmarked) [Batch C, glycopyrrolate]
Micronised powder
  d50 on repeated particle sizing on storage: 51 μm
  Physical state of powder on storage: large hard lumps of material were found in bulk powder

— patent US10695321B2, “Use of glycopyrrolate for treating tachycardia” (Heptares Therapeutics Limited, priority 2011, dated 2020)
